From patent publication US6747052B2, “Substituted indole-2-carboxylic acid benzylidene-hydrazides and analogs as activators of caspases and inducers of apoptosis and the use thereof” (Cytovia, Inc., priority 2000, dated 2004) come the findings set out here.

Structures are written as SMILES. “Also recorded” adds a separate entry of the source. Read-outs that look alike come from different tables or passages of the source.

Assay [1] deals with ZR-75-1. In words: Inhibition of cell proliferation (GI50, CellTiter 96 AQueous One) in ZR-75-1 cells. The format is cell-based. Conditions: Homo sapiens, ZR-75-1, 48 h; read-out: GI50 (dose for 50% inhibition of cell proliferation). As for the experimental part: T-47D and ZR-75-1 cells were grown and harvested as in Example 1. An aliquot of 90 μl of cells (2.2×10^4 cells/ml) was added to a well of a 96-well microtiter plate containing 10 μl of a 10% DMSO in RPMI-1640 media solution containing 1 nM to 100 μM of 5-chloro-3-methyl-indole-2-carboxylic acid (4-nitrobenzylidene)-hydrazide (Compound A) or 5-chloro-3-phenyl-indole-2-carboxylic acid (4-nitrobenzylidene)-hydrazide (Compound B) (0.1 nM to 10 μM final). An aliquot of 90 μl of cells was added to a well of a 96-well microtiter plate containing 10 μl of a 10% DMSO in RPMI-1640 media solution without compound as the control sample for maximal cell proliferation (AMax). The samples were mixed by agitation and then incubated at 37° C. for 48 h in a 5% CO2-95% humidity incubator. […] Using an absorbance plate reader (Model 1420 Wallac Instruments), an initial reading (T=0) was made approximately 1-2 min after addition of the solution, employing absorbance at 490 nm. This determines the possible background absorbance of the test compounds. No absorbance for 5-chloro-3-methyl-indole-2-carboxylic acid (4-nitrobenzylidene)-hydrazide or 5-chloro-3-phenyl-indole-2-carboxylic acid (4-nitrobenzylidene)-hydrazide was found at 490 nm. After the 2-4 h incubation, the samples were read for absorbance as above (ATest). […]

The subject of assay [2] is Jurkat cells. In words: Nuclear fragmentation in Jurkat cells (Syto16 staining). It is filed as cell-based. Conditions: 5 μM, 24 h. As for the experimental part: The ability of 5-chloro-3-methyl-indole-2-carboxylic acid (4-nitrobenzylidene)-hydrazide to induce nuclear fragmentation, an indicator of apoptosis, was tested by treatment of Jurkat cells with the test compound followed by staining of the nucleus with Syto16, a fluorescent DNA dye (Molecular Probes, Eugene, Oreg.). The nuclei of Jurkat cells treated with vehicle control (DMSO) are seen to be round with dispersed chromatin that is moderately stained with Syto16 (FIG. 1A).

The test system of assay [3] is T47D cells. In words: Cell cycle arrest and apoptosis in T47D cells (propidium iodide flow cytometry). It is filed as cell-based, Human. Conditions: 10 μM, 48 h. As for the experimental part: T47D, a breast cancer cell line, was maintained and harvested as described in Example 1. 1×10^6 Cells were treated with 10 μM of 5-chloro-3-methyl-indole-2-carboxylic acid (4-nitrobenzylidene)-hydrazide for 48 h at 37° C. As a control, cells were also incubated with equivalent amount of solvent (DMSO). Cells were harvested at 1,200 rpm and washed twice with 5 mM EDTA/PBS. Cells were then resuspended in 300 μl EDTA/PBS and 700 μl of 100% ethanol, vortexed and incubated at room temperature for 1 h. Samples were spun down at 1,200 rpm for 5 min and the supernatant was removed. A solution containing 100 μg/ml of propidium iodide and 1 mg/ml of RNAse A (fresh) was added to the samples and incubated for 1 h at room temperature. Samples were then transferred to 12×75 mm polystyrene tubes and analyzed on a flow cytometer. All flow cytometry analyses were performed on FACScalibur (Becton Dickinson) using Cell Quest analysis software. The x-axis plotted the amount of fluorescence and the y-axis is plotted the number of cells with the indicated fluorescence. […] An increase in the sub-diploid DNA content of cells (marker M1 region, FIG. 3) is also seen to increase from 2% to 25% with compound treatment. The sub-diploid amount of DNA (M1) is indicative of apoptotic cells which have undergone DNA degradation or fragmentation.
For orientation: In flow cytometry, cells or beads pass a laser one at a time.

Assay [4] concerns HeLa cells. In words: Clonogenic survival of HeLa cells. The format is cell-based. To be noted: Homo sapiens. As for the experimental part:
HeLa cells were grown according to media component mixtures designated by American Type Culture Collection +10% FCS (Invitrogen Corporation, Life Technologies division), in a 5% CO2-95% humidity incubator at 37° C. In a well of a 96 well plate, 30,000 cells were seeded and treated with testing compound at the indicated concentrations for 48 hr in a 5% CO2-95% humidity incubator at 37° C. Control wells were treated with the same amount of solvent (DMSO) as the compound samples. After the indicated treatment time, the supernatant was removed to a sterile culture tube and the wells washed with phosphate buffered saline, and the adherent cells trypsinized for 5 min. The trypsinzed cells were added to the culture supernatant, cells were collected (1,200 rpm, 10 min), washed with phosphate buffered saline, and resupended in fresh media. The cells were counted for trypan blue negative cells, and the cells diluted with fresh media to 1,000 cells/ml. To a well of a 24-well plate, 0.1 ml of the cell suspension was added along with 1 ml of fresh media (cell suspensions were passed through a 22G needle several times just before plating to form single cell suspensions). Plates are incubated in a 5% CO2-95% humidity incubator at 37° C. for 5-7 days. Colonies are counted when the sizes reached greater than 50 cells per colony. Cells are washed with phosphate buffered saline, fixed with 100% methanol for 15 min, and then stained with 0.5% gentian violet for 15 min. Colonies are rinsed with water and the colonies counted and the fraction surviving expressed as the percentage of the number of control colonies.

Regarding `Cc1c(C(=O)NN=Cc2ccc([N+](=O)[O-])cc2)[nH]c2ccc(Cl)cc12` [Compound A, 5-chloro-3-methyl-indole-2-carboxylic acid (4-nitrobenzylidene)-hydrazide], the GI50 in assay [1] worked out at 12000 nM. For the same compound, the “Nuclear morphology (nuclear fragmentation)” value in assay [2] was “shrunken and fragmented nuclei”. Besides, the “G2/M DNA content (M4) of cells” value in assay [3] is “increase in G2/M DNA content; also recorded: an increase in the G2/M (M4)”. Moreover, in assay [3] (control 2%), the “Sub-diploid DNA content of cells (M1)” value stood at 25%. In addition, the 50% inhibitory concentration (IC50) – broadly, the concentration that gives 50% inhibition – in assay [4] (48 hr treatment, read-out: IC50 of colony forming ability) was roughly 3000 nM; in assay [4] (48 h treatment, FIG. 4 legend, read-out: IC50 of colony formation), roughly 3000 nM.
